Results reported in the supplement of paper PMC13380429.

How the values were obtained:
Details in all cases: 72 h
Caco-2 [1] = experiment: relative viability EC50 (midpoint between 100% and the lowest measured viability); higher = less toxic
HepG2 [2] = experiment: as above
Vero E6 [3] = experiment: as above
U2OS [4] = experiment: as above
Calu-3 [5] = experiment: as above
Caco-2 [6] = experiment: drug sensitivity score (DSS) for viability; higher = more toxic; extreme values may be limits of the assay
HepG2 [7] = experiment: as above
Vero E6 [8] = experiment: as above
U2OS [9] = experiment: as above
Calu-3 [10] = experiment: as above
Caco-2 [11] = experiment: cell viability relative to DMSO; higher = less toxic
HepG2 [12] = experiment: as above
Vero E6 [13] = experiment: as above
U2OS [14] = experiment: as above
Calu-3 [15] = experiment: as above

| SMILES | relative viability EC50 (Caco-2 [1]) [µM] | relative viability EC50 (HepG2 [2]) [µM] | relative viability EC50 (Vero E6 [3]) [µM] | relative viability EC50 (U2OS [4]) [µM] | relative viability EC50 (Calu-3 [5]) [µM] | drug sensitivity score (Caco-2 [6]) | drug sensitivity score (HepG2 [7]) | drug sensitivity score (Vero E6 [8]) | drug sensitivity score (U2OS [9]) | drug sensitivity score (Calu-3 [10]) | cell viability (Caco-2 [11]; 1 nM) [%] | cell viability (Caco-2 [11]; 10 nM) [%] | cell viability (Caco-2 [11]; 100 nM) [%] | cell viability (Caco-2 [11]; 1000 nM) [%] | cell viability (Caco-2 [11]; 10000 nM) [%] | cell viability (HepG2 [12]; 1 nM) [%] | cell viability (HepG2 [12]; 10 nM) [%] | cell viability (HepG2 [12]; 100 nM) [%] | cell viability (HepG2 [12]; 1000 nM) [%] | cell viability (HepG2 [12]; 10000 nM) [%] | cell viability (Vero E6 [13]; 1 nM) [%] | cell viability (Vero E6 [13]; 10 nM) [%] | cell viability (Vero E6 [13]; 100 nM) [%] | cell viability (Vero E6 [13]; 1000 nM) [%] | cell viability (Vero E6 [13]; 10000 nM) [%] | cell viability (U2OS [14]; 1 nM) [%] | cell viability (U2OS [14]; 10 nM) [%] | cell viability (U2OS [14]; 100 nM) [%] | cell viability (U2OS [14]; 1000 nM) [%] | cell viability (U2OS [14]; 10000 nM) [%] | cell viability (Calu-3 [15]; 1 nM) [%] | cell viability (Calu-3 [15]; 10 nM) [%] | cell viability (Calu-3 [15]; 100 nM) [%] | cell viability (Calu-3 [15]; 1000 nM) [%] | cell viability (Calu-3 [15]; 10000 nM) [%] |
| --- | --- | --- | --- | --- | --- | --- | --- | --- | --- | --- | --- | --- | --- | --- | --- | --- | --- | --- | --- | --- | --- | --- | --- | --- | --- | --- | --- | --- | --- | --- | --- | --- | --- | --- | --- |
| Cc1ccc(-c2cc(C(F)(F)F)nn2-c2ccc(S(N)(=O)=O)cc2)cc1 [celecoxib] | > 10 | > 10 | > 10 | > 10 | > 10 | 0 | 0 | 0 | 0 | 0 | 99.1 | 79.8 | 105 | 90.6 | 103 | 115 | 98.4 | 99.3 | 100 | 95.1 | 101 | 85.4 | 102 | 94.1 | 104 | 92.4 | 99.6 | 92.4 | 97.7 | 98.4 | 99.4 | 100 | 98.2 | 101 | 114 |
| O=C([O-])c1ccccn1.O=C([O-])c1ccccn1.O=C([O-])c1ccccn1.[Cr+3] [chromium-picolinate] | > 10 | > 10 | > 10 | > 10 | > 10 | 0 | 0 | 0 | 0 | 0 | 105 | 92 | 104 | 95.5 | 103 | 93 | 95.3 | 103 | 98.7 | 90.1 | 102 | 103 | 105 | 99.2 | 101 | 104 | 97.7 | 98.6 | 98.9 | 102 | 111 | 102 | 113 | 103 | 97.6 |
| Clc1ccc(Cn2c(CN3CCCC3)nc3ccccc32)cc1 [clemizole] | > 10 | > 10 | > 10 | > 10 | > 10 | 0.5 | 0 | 0 | 0 | 0 | 95.5 | 94.7 | 97.6 | 97 | 84.7 | 112 | 111 | 94.3 | 106 | 89.1 | 102 | 104 | 103 | 99.2 | 92.3 | 101 | 97.7 | 98.6 | 105 | 97.8 | 95.7 | 98.4 | 101 | 101 | 107 |
| O=c1cc(N2CCOCC2)nc2c3ccccc3ccn12 [compound-401] | > 10 | > 10 | > 10 | > 10 | > 10 | 0.2 | 2.5 | 0 | 0 | 0 | 96.8 | 108 | 96.4 | 99.1 | 85.8 | 93 | 108 | 99.4 | 82.8 | 78 | 102 | 97.9 | 98 | 98.3 | 95.9 | 96.2 | 99.8 | 97.2 | 101 | 95.5 | 93.8 | 94.4 | 97.9 | 99.5 | 107 |
| CC(=O)OCC(=O)[C@@]1(O)CC[C@H]2[C@@H]3CCC4=CC(=O)CC[C@]4(C)[C@H]3C(=O)C[C@@]21C [cortisone-acetate] | > 10 | > 10 | > 10 | > 10 | > 10 | 0 | 0 | 0 | 0 | 0 | 108 | 95.4 | 101 | 96.3 | 103 | 90 | 110 | 104 | 110 | 101 | 87.9 | 97.5 | 96.4 | 101 | 99.3 | 99.6 | 98.1 | 97 | 101 | 95.1 | 93.2 | 98.5 | 98.9 | 106 | 101 |
| CC(C)(C)NCC(O)COc1cccc2[nH]c(C#N)cc12 (stereo not given) [cyanopindolol] | > 10 | > 10 | > 10 | > 10 | > 10 | 0 | 0 | 0 | 0 | 0 | 103 | 103 | 95.8 | 99.7 | 97.5 | 93 | 95.7 | 89.6 | 102 | 95.8 | 102 | 103 | 100 | 104 | 97 | 100 | 98.8 | 96.7 | 94.7 | 101 | 85.4 | 105 | 100 | 96.8 | 92.8 |
| c1ccc(Cn2c(-c3ccc(OC[C@H](C4CCNCC4)n4c(-c5ccccc5)nc5ccccc54)cc3)nc3ccccc32)cc1 [deltarasin] | 2.85 | 3.62 | 2.8 | 3.14 | 3.51 | 6 | 4.9 | 6.2 | 5.6 | 5.1 | 98.6 | 87.8 | 104 | 95.9 | 2.1 | 99.7 | 100 | 95 | 110 | -0.3 | 92.9 | 99.3 | 94 | 95.4 | -0.1 | 99.9 | 93.9 | 98.7 | 99.9 | -0.3 | 105 | 102 | 102 | 107 | 0.1 |
